Data reported in patent publication US20070202079A1, “Therapeutic compositions and methods useful in modulating protein tyrosine phosphatases” (priority 2006, published 2007).

What was measured:
Hey = test: HEY cell growth, MTT; format: cell-based, human; conditions: 100 μg/ml, day 6
Method: (§1) NIH3T3 (Yi, et al., Blood 85, 87 (1995)), WM9 (Forsberg, et al., Proc. Nat. Acad Sci. USA 90, 393 (1993)), DU145 (Mickey, et al., Cancer Res. 37, 4049 (1977)), LoVo (Drewinko, et al., Cancer Res. 36, 467 (1976)), HEY (Buick, et al., Cancer Res. 45, 3668 (1985)), U251 (Yoshida, et al., Cancer 50, 410 (1982)), A549 (Giard, et al., J. Natl. Cancer Inst. 51, 1417 (1973)) and SK-N-SH (Helson, et al., Cancer Res. 35, 2594 (1975)) cell lines have been described and were cultured in RPMI 1640 supplemented with 10% fetal calf serum (FCS). For measurement of sodium stibogluconate effects on cell growth in vitro, cells were cultured in the absence (−) or presence (+) of various amounts of sodium stibogluconate for 6 days with viable cells quantified by MTT assays (Mosmann, J. Immunol. Methods 65, 55 (1983)). Percentages of growth inhibition by sodium stibogluconate were calculated (.+−.x%).

A549 = A549 cell growth, MTT; format: cell-based, human; conditions: 100 μg/ml, day 6
Method: as §1

Flag-PRL-2 = target: T1, Flag-PRL-2 (Homo sapiens, UniProt Q12974); test: immunocomplex PTPase assay, NIH3T3 Flag-PRL-2 transfectants; format: cell-based, mouse
T1 construct: expressed in transfected cells; host or cells: NIH3T3 (pBabepuro, puromycin-selected)
Method: (§2) Immunocomplex PTPase assays were performed to assess the effects of sodium stibogluconate on intracellular PTPases. Cells were untreated or treated with sodium stibogluconate for 5 minutes, washed with fresh medium and then lysed in cold lysis buffer (50 mM Tris, pH 7.4; 150 mM NaCl; 1% NP40; 2 mM PMSF; 20 μg/ml of Aprotinin). The lysates were incubated with an anti-Flag antibody in immunoprecipitation assays. The immunocomplexes were collected with protein G sepharose beads (Pharmacia) and washed in cold lysis buffer for 4 times. […] C. for 18 hrs. 100 μL of malachite green solution (UBI) was added to each reaction prior to measurement of OD660 to quantify the amounts of free phosphate cleaved by the PTPases from the peptide substrate (Pathak et al., J. Immunol. 167, 3391 (2001)). The remaining 10% contents of individual samples were analyzed by SDS-PAGE/Western blotting to quantify the relative amounts of the phosphatase proteins. […]
(§3) The effects of sodium stibogluconate on intracellular PTPases were assessed using NIH3T3 or WM9 transfectants. […]

Flag-PRL-3 = target: T2, Flag-PRL-3 (Homo sapiens, UniProt O75365); test: immunocomplex PTPase assay, NIH3T3 Flag-PRL-3 transfectants; format: cell-based, mouse; conditions: cells treated 5 min
T2 construct: expressed in transfected cells; host or cells: NIH3T3 (pBabepuro, puromycin-selected)
Method: as §2, §3

MDA231 = MDA231 cell growth, MTT; format: cell-based, human; conditions: 50 μg/ml, day 6 culture
Method: (§4) For cell proliferation assays, cells were grown in 10% FCS culture medium containing various amounts of IFNs and/or sodium stibogluconate in 96 well plates and cultured at 37° C. for 3 or 6 days as indicated. The numbers of viable cells in proliferation assays were determined by MTT assays as described in Phatak et al., J. Immunol. 167, 3391 (2001).

DU145R cells = test: DU145R cell growth, MTT; format: cell-based, human; conditions: day 6 culture
Method: DU145 cells were cultured in the presence of sodium stibogluconate (100 μg/ml) in 48 well plates for 3 weeks. Cells from a well containing a single colony were transferred to flasks, cultured in sodium stibogluconate-free medium for 3 weeks and used as DU145R cells for further characterization. Growth of DU145R cells in the absence or presence of sodium stibogluconate in day 6 culture was determined by MTT assays. cDNAs of the coding region of PRLs were derived by RT-PCR from DU145 and DU145R cells and sequenced using primers described below.

U251 = U251 cell growth, MTT; format: cell-based, human; conditions: 100 μg/ml, day 6
Method: as §1

[1] = test system: WM9 PRL-1R86 transfectant; test: growth of WM9 PRL-1R86 transfectant, MTT; format: cell-based, human; conditions: 50 or 100 μg/ml, 6 days
Method: as §1
The effects of sodium stibogluconate on intracellular PTPases were assessed using NIH3T3 or WM9 transfectants. NIH3T3 or WM9 cells were transfected with the pBabepuro vector (V) or pBabepuro expression constructs of Flag-tagged PRLs using Lipofectamine (BRL) following the manufacturer's procedures. […]

WiT49-N1 = WiT49-N1 cell growth, MTT; format: cell-based, human; conditions: day 6
Method: as §4

T1 sequence (Q12974 whole entry): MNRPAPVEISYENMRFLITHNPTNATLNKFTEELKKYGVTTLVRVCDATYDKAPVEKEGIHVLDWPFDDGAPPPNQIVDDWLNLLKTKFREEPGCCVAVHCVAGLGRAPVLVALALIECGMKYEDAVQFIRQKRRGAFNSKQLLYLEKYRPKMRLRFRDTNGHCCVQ
T2 sequence (O75365 whole entry): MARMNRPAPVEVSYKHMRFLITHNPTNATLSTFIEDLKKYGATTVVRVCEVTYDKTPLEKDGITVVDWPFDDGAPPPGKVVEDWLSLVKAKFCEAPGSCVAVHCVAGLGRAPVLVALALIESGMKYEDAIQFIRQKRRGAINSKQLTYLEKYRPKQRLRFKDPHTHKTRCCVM

O.O.O.O.O.O.O.O.O.O=C([O-])[C@@H]1[O][Sb]2([O-])([O][Sb]34([OH])[O][C@H]([C@H](O)CO)[C@H]([O]3)[C@H](C(=O)[O-])[O]4)[O][C@H]([C@H](O)CO)[C@@H]1[O]2.[Na+].[Na+].[Na+] [sodium stibogluconate]
cell killing of Hey (Hey): near-complete cell killing
cell killing of A549 (A549): near-complete cell killing
time required for full removal of effect on intracellular PRL-2 (Flag-PRL-2; brief treatment): at least 24 hours
PTPase activity of immunocomplexes from treated Flag-PRL-2 transfectants (Flag-PRL-2; cells treated 5 min): lack of PTPase activity
PTPase activity of immunocomplexes from treated Flag-PRL-3 transfectants (Flag-PRL-3): lack of PTPase activity
MDA231 cells, single agent (MDA231): killed all cells
growth of DU145R versus parental DU145 in presence of drug (DU145R cells): growth resistance
cell killing of U251 (U251): near-complete cell killing
growth inhibition of R86 cells [1]: only modest growth inhibition
WiT49-N1 growth inhibition activity with IFN-alpha (WiT49-N1): not enhanced by IFN-alpha
